Read-outs that look alike come from different tables or passages of the source.
Legend:
IL-6 = assay: ELISA of IL-6 release in LPS-stimulated RAW264.7 cells; assay type: cell-based, mouse; conditions: RAW264.7, ELISA; for inhibition at 5 µM: Mus musculus, RAW264.7, BAPs (5 μM) + LPS (1 μg/mL), read-out: Inhibition rate IL-6; for Inhibition rate IL-6: BAPs (5 μM) + LPS (1 μg/mL)
Description: (§1) We tested by inhibiting the secretion of TNF-α and IL-6 to better evaluated the anti-inflammatory effects of BAPs. […] Under the stimulation of LPS (1.0 μg/mL) with RAW264.7 cells, the release of TNF-α and IL-6 was detected. Besides, after treated with BAPs (5.0 μM) and LPS (1.0 μg/mL), the release of TNF-α and IL-6 was measured with an ELISA kit (eBioScience, San Diego, California), respectively. In general terms, pyrrolidine dithiocarbamate (PDTC, 30 μM) or BAP (5.0 μM) was used to pretreat cells for 2 h, respectively. Then, LPS (1.0 μg/mL) was added and cells were incubated for another 22 h. Finally, the culture media were centrifuged at 1000 rpm for 10 min, and the expression levels of TNF-α and IL-6 were determined by ELISA.

[1] = Modified MTT cytotoxicity assay, normal heptical cell line LO2; assay type: cell-based, human; conditions: human, LO2 cells (normal hepatic cell line), 24 h incubation
Description: (§2) The HepG2, SMMC-7721, and LO2 cell lines were maintained at 37 °C, 5% humidified CO2, and 95% atmosphere. Dulbecco's Modified Eagle (DMEM) medium containing 10% foetal bovine serum (FBS) was used for culturing the HepG2 cell line; meanwhile, Roswell Park Memorial Institute (RPMI) 1640 medium containing 10% FBS was used for culturing other cell lines (SMMC-7721, LO2). The HepG2, SMMC-7721 and LO2 cells were seeded in a 96-well plate in 200 μL of medium per well at a density of approximately 8 × 10^3 cells/well and cultured for 24 h, followed by incubation in an incubator of indicated compounds with successive concentrations (10, 5, 2.5, 1.25, 0.625, 0.3125 μg/mL) for 24 h. In the control group, cells were only cultured with culture media. After the media were removed, 20 μL of MTT (5 mg/mL) was added, then cells were incubated for 4 h at 37 °C. […] GraphPad Prism 5 software was used to calculate their IC50 values. Every IC50 value was the average of three replicates. Doxorubicin (DOX) and curcumin were used as positive controls.

HepG2 = assay: Modified MTT cytotoxicity assay, HepG2; assay type: cell-based, Human; conditions: for IC50: MTT, 24 h incubation, three replicates, read-out: Cytotoxicity IC50 HepG2; for SI (selectivity index) HepG2: quotient of IC50 for normal (LO2) and malignant (HepG2) cells
Description: as §2

RAW264.7 cell = assay: MTT toxicity pre-experiment on RAW264.7 macrophagocyte; assay type: cell-based, mouse; conditions: for viability at 5 µM: Mus musculus, RAW264.7, BAPs 5 μM, read-out: Survival rate RAW264.7 cell; for Survival rate RAW264.7 cell: BAPs 5 μM
Description: Lipopolysaccharide (LPS) is a key constituent of Gram-negative bacterial endotoxin, which is used to induce an inflammatory response in corresponding inflammatory cells. TNF-α and IL-6 are two kinds of representative pro-inflammatory factors, which produced by LPS-stimulated RAW264.7 macrophage. In our pre-experiments, the toxicity against RAW264.7 macrophagocyte for all title compounds was tested by the MTT assay, and the results were listed in Table 2. The survival rates were above 80% for all BAPs (4-30) at the concentration of 5.0 μM.

A2780 = assay: Modified MTT cytotoxicity assay, A2780; conditions: for SI (selectivity index) A2780: quotient of IC50 for normal (HHL-5) and malignant (A2780) cells
Description: (§3) To further verify the anti-tumour activity, one human non-small cell lung cancer cell line (A549), one human ovarian cancer cell line (A2780), and one human normal heptical cell line (HHL-5) were screened by BAPs (4–30) using a modified MTT assay (Supporting Information). DOX and curcumin were selected as positive controls.
(§4) The optical density (OD) value of each well was measured on a
(§5) multi-well plate reader (TECAN, Mӓnnedorf, Switzerland ) at 570 nm.
(§6) Every IC 50 value was the average of three replicates.
(§7) Doxorubicin (DOX) and Curcumin were used as positive controls.

TNF-α = assay: ELISA of TNF-α release in LPS-stimulated RAW264.7 cells; assay type: cell-based, mouse; conditions: RAW264.7, ELISA; for inhibition at 5 µM: Mus musculus, RAW264.7, BAPs (5 μM) + LPS (1 μg/mL), read-out: Inhibition rate TNF-α; for Inhibition rate TNF-α: BAPs (5 μM) + LPS (1 μg/mL)
Description: as §1

A549 = assay: Modified MTT cytotoxicity assay, A549; conditions: for SI (selectivity index) A549: quotient of IC50 for normal (HHL-5) and malignant (A549) cells
Description: as §3, §4, §5, §6, §7

SMMC-7721 = assay: Modified MTT cytotoxicity assay, SMMC-7721; assay type: cell-based, Human; conditions: for IC50: MTT, 24 h incubation, three replicates; for SI (selectivity index) SMMC-7721: quotient of IC50 for normal (LO2) and malignant (SMMC-7721) cells
Description: as §2

[2] = Modified MTT cytotoxicity assay, normal heptical cell line HHL-5; conditions: human, HHL-5 cells (normal hepatic cell line)
HHL-5 = assay: as above; conditions: read-out: Cytotoxicity IC50 HHL-5; MTT, normal heptical cell line
LO2 = assay: Modified MTT cytotoxicity assay, normal heptical cell line LO2; assay type: cell-based, human; conditions: 24 h incubation
Description: as §2

in vitro = conditions: human
[3] = Homo sapiens, A2780, read-out: Cytotoxicity IC50 A2780, MTT, ovarian cancer cell line
[4] = Homo sapiens, A549, read-out: Cytotoxicity IC50 A549, MTT, non-small cell lung cancer cell line
[5] = read-out: Cytotoxicity IC50 A2780, MTT, ovarian cancer cell line
[6] = read-out: Cytotoxicity IC50 A549, MTT, non-small cell lung cancer cell line

SMILES | melting point | inhibition at 5 µM (IL-6) | IC50 at 24 h [1] | IC50 (HepG2; Homo sapiens, HepG2, 24 h) | SI (selectivity index) HepG2 (HepG2) | viability at 5 µM (RAW264.7 cell) | IC50 (A2780; [3]) | SI (selectivity index) A2780 (A2780) | inhibition at 5 µM (TNF-α) | IC50 (A549; [4]) | SI (selectivity index) A549 (A549) | IC50 (SMMC-7721; Homo sapiens, SMMC-7721, 24 h) | SI (selectivity index) SMMC-7721 (SMMC-7721) | IC50 [2] | further results
O=C1/C(=C/c2ccccc2C(F)(F)F)CN(S(=O)(=O)c2ccc([N+](=O)[O-])cc2)C/C1=C\c1ccccc1C(F)(F)F [BAP 6] | 204 to 206 °C | 68.2 ± 3% | 15.7 ± 1.3 µM | 4.3 ± 0.2 µM | 3.7 | 85.7 ± 3.1% | 28.8 ± 5.33 µM | 0.3 | 61 ± 2.7% | 7.58 ± 1.76 µM | 1.0 | 10.4 ± 0.2 µM | 1.5 |  | 
O=C1/C(=C/c2ccccc2C(F)(F)F)CN(S(=O)(=O)c2ccc(Br)cc2)C/C1=C\c1ccccc1C(F)(F)F [BAP 10] | 197 to 199 °C | 67.8 ± 3.2% | 17 ± 0.4 µM | 14.7 ± 0.1 µM | 1.2 | 83.8 ± 2.9% | 2.34 ± 0.39 µM | 6.2 | 59.2 ± 2.8% | 5.01 ± 0.45 µM | 2.9 | 4.7 ± 0.1 µM | 3.6 | 14.5 ± 0.1 µM | 
O=C1/C(=C/c2cccc(C(F)(F)F)c2)CN(S(=O)(=O)c2ccccc2)C/C1=C\c1cccc(C(F)(F)F)c1 [BAP 13] | 151 to 153 °C | 48.9 ± 2.9% | 10.1 ± 0.4 µM | 3.5 ± 0.1 µM | 3.1 | 82.5 ± 1.3% | 0.16 ± 0.01 µM | 18.1 | 56.3 ± 2.1% | 0.25 ± 0.01 µM | 11.6 | 5.7 ± 0.1 µM | 1.8 | 2.9 ± 0.2 µM | 
O=C1/C(=C/c2cccc(C(F)(F)F)c2)CN(S(=O)(=O)c2ccc([N+](=O)[O-])cc2)C/C1=C\c1cccc(C(F)(F)F)c1 [BAP 15] | 196 to 198 °C | 60.8 ± 4.2% | 12.6 ± 0.1 µM | 2.7 ± 0.1 µM | 4.7 | 81.9 ± 1.2% | 0.14 ± 0.02 µM | 37.1 | 62.1 ± 0.7% | 0.13 ± 0.02 µM | 40.0 | 5 ± 0.1 µM | 2.5 | 5.2 ± 0.3 µM | 
O=C1/C(=C/c2cccc(C(F)(F)F)c2)CN(S(=O)(=O)c2ccc(Br)cc2)C/C1=C\c1cccc(C(F)(F)F)c1 [BAP 19] | 135 to 137 °C | 56.3 ± 1.3% | 11 ± 0.2 µM | 6.5 ± 0.2 µM | 1.7 | 81.9 ± 0.6% | 0.21 ± 0.03 µM | 64.8 | 49.2 ± 3.7% | 0.12 ± 0.01 µM | 113.3 | 7.6 ± 0.4 µM | 1.4 | 13.6 ± 0.5 µM | 
O=C1/C(=C/c2ccc(C(F)(F)F)cc2)CN(S(=O)(=O)c2ccc([N+](=O)[O-])cc2)C/C1=C\c1ccc(C(F)(F)F)cc1 [BAP 24] |  |  |  |  | 12.0 |  |  | 44.1 |  |  | 44.1 |  | 4.5 |  | Inhibition rate IL-6 (IL-6): 57.3 ± 2.1%; IC50 (HHL-5): 7.5 ± 0.6 µM; IC50 (LO2): 14.4 ± 0.1 µM; IC50 (HepG2): 1.2 ± 0.3 µM; Survival rate RAW264.7 cell (RAW264.7 cell): 89.0 ± 1.6%; IC50 (A2780; [5]): 0.17 ± 0.02 µM; Inhibition rate TNF-α (TNF-α): 65.0 ± 1.8%; IC50 (A549; [6]): 0.17 ± 0.01 µM; IC50 (SMMC-7721): 3.2 ± 0.3 µM
O=C1/C(=C/c2ccc(C(F)(F)F)cc2)CN(S(=O)(=O)c2ccc(Cl)cc2)C/C1=C\c1ccc(C(F)(F)F)cc1 [BAP 27] | 220 to 222 °C | 67.3 ± 2.2% | 15.8 ± 0.4 µM | 1.4 ± 0.2 µM | 11.3 | 86.4 ± 4.8% | 0.197 ± 0.05 µM | 46.2 | 69.9 ± 2.7% | 0.14 ± 0.04 µM | 65.0 | 1.8 ± 0.2 µM | 8.8 | 9.1 ± 0.2 µM | 
CC(=O)Nc1ccc(S(=O)(=O)N2C/C(=C\c3ccc(C(F)(F)F)cc3)C(=O)/C(=C/c3ccc(C(F)(F)F)cc3)C2)cc1 [BAP 30] |  |  |  |  | 7.9 |  |  | 16.2 |  |  | 21.4 |  | 4.6 |  | Inhibition rate IL-6 (IL-6): 70.1 ± 1.2%; IC50 (HHL-5): 2.1 ± 0.1 µM; IC50 (LO2): 14.2 ± 1.1 µM; IC50 (HepG2): 1.8 ± 0.2 µM; Survival rate RAW264.7 cell (RAW264.7 cell): 92.0 ± 1.3%; IC50 (A2780; [5]): 0.13 ± 0.02 µM; Inhibition rate TNF-α (TNF-α): 68.3 ± 3.1%; IC50 (A549; [6]): 0.098 ± 0.01 µM; IC50 (SMMC-7721): 3.1 ± 0.2 µM
COc1cccc2c1C(=O)c1c(O)c3c(c(O)c1C2=O)C[C@@](O)(C(=O)CO)C[C@@H]3O[C@H]1C[C@H](N)[C@H](O)[C@H](C)O1 [DOX, Doxorubicin, reference compound] |  |  | 8.9 ± 0.5 µM | ~1.3 µM | 6.8 |  | 0.19 ± 0.01 µM | 64.2 |  | 0.29 ± 0.07 µM | 42.1 | ~1.7 µM | 5.2 |  | SI (selectivity), bound stated for A549 and A2780 together (A549; A549 and A2780 vs HHL-5): > 40; IC50 (in vitro): 12.2 ± 0.4 µM

From article PMC8297402, “Trifluoromethyl-substituted 3,5-bis(arylidene)-4-piperidones as potential anti-hepatoma and anti-inflammation agents by inhibiting NF-кB activation” (Journal of Enzyme Inhibition and Medicinal Chemistry, 2021)
